Source: patent US20250382344A1, “Soluble GLP1/GIP/NPY2 Receptor Triple Agonists” (Boehringer Ingelheim International GmH, priority 2024, published 2025)
pEC50: −log10 of the molar value. Where two headings read alike, the source gives them in different places.

How the values were obtained:
[1] = Solubility in 0.1 M phosphate buffer at pH 7; type: physicochemical; conditions: 0.1 M phosphate buffer at pH 7, 10 mg/mL final peptide concentration, shaking 2 hours at room temperature, peptides as TFA-salts; measured sample pH 6.5-7.0
hGLP1R = molecular target: T1, hGLP1R (Homo sapiens, UniProt P43220); assay: hGLP1R CreLuc assay in 0.5% and 100% plasma (HEK-293 CRE-luciferase reporter cells); type: cell-based; conditions: HEK-293 reporter cells
T1 construct: expressed in transfected cells; host or cells: HEK-293 CRE-luciferase reporter cells
T1 sequence (P43220 24-463): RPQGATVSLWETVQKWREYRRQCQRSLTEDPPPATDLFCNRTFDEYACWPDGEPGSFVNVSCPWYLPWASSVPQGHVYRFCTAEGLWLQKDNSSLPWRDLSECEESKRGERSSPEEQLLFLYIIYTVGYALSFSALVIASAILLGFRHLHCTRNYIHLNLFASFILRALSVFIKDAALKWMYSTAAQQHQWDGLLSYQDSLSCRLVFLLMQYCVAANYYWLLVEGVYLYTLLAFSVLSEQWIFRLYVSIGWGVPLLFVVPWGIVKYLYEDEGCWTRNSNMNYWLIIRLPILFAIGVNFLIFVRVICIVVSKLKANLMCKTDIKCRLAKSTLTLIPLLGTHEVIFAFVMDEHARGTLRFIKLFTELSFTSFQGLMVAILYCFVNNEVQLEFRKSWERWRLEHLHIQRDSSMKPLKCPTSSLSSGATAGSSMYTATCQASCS

[2] = Mouse PK after intravenous application; type: in vivo; conditions: plasma, male NMRI mice, intravenous 30-60 nmol/kg, non-compartmental analysis
Method: Pharmacokinetic parameters of the peptides were determined after intravenous application to NMRI mice (Naval Medical Research Institute mice). Male NMRI mice were obtained from Janvier Laboratories (France) weighing 30 g to 40 g. Mice were housed in standard cages with a 12:12 hours light:dark cycle and standard food and water access ad libitum. Each test peptide was dissolved in 50 mM phosphate buffer (pH 7.4)/3.5% mannitol. Intravenous application of 30-60 nmol/kg was performed via the tail vein. Serial blood samples from conscious mice were collected from the saphenous vein in EDTA-containing vials at different time points up to 56 hours post-dosing. Subsequently, plasma was prepared by centrifugation for 5 minutes at approximately 5000 rpm and stored at −20° C. until quantification of the peptide plasma levels by liquid chromatography mass spectrometry (LC-MS). Individual plasma concentration-time profiles were analysed by a non-compartmental approach and the resulting pharmacokinetic parameters were calculated.

hGIPR = molecular target: T2, hGIPR (Homo sapiens, UniProt P48546); assay: hGIPR CreLuc assay in 0.5% and 100% plasma (CHO CRE-luciferase reporter cells); type: cell-based
T2 construct: expressed in transfected cells; host or cells: CHO CRE-luciferase reporter cells
T2 sequence (P48546 22-466): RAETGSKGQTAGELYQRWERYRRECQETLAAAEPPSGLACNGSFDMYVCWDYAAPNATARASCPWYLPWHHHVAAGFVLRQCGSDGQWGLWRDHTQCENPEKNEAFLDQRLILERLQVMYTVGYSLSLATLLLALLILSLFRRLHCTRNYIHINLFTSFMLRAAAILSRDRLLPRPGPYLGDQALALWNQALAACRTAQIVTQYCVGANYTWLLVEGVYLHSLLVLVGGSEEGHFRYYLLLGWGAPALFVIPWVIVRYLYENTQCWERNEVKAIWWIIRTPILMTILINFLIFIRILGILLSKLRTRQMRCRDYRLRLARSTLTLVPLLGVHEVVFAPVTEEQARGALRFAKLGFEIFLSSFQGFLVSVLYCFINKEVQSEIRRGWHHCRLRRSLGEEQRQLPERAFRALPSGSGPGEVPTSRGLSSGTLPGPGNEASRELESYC

hNPY2R = molecular target: T3, hNPY2R (Homo sapiens, UniProt P49146); assay: hNPY2R CreLuc assay in 0.5% and 100% plasma (HEK-293 CRE-luciferase reporter cells); type: cell-based; conditions: HEK-293 reporter cells
T3 construct: expressed in transfected cells; host or cells: HEK-293 CRE-luciferase reporter cells
T3 sequence (P49146 1-381): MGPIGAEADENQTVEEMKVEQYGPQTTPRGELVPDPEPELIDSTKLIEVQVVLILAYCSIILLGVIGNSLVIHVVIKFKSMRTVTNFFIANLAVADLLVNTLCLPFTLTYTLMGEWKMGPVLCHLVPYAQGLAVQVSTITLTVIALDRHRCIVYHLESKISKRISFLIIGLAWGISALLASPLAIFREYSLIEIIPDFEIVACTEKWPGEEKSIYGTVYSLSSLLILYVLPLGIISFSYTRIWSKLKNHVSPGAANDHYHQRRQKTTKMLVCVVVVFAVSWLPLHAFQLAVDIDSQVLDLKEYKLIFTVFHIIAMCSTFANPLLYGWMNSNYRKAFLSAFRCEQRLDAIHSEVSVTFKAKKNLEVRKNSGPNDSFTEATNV

[3] = 0.5% human plasma, read-out: hGLP1R 0.5% hP
[4] = 100% human plasma, read-out: hGLP1R 100% hP
[5] = 0.5% human plasma, read-out: hGIPR 0.5% hP

solubility at 2 h [1]	pEC50 (hGLP1R; [3])	pEC50 (hGLP1R; [4])	MRT [2]	pEC50 (hGIPR; [5])	pEC50 (hNPY2R; 0.5% human plasma, read-out: hNPY2R 0.5% hP)	pEC50 (hNPY2R; 100% human plasma, read-out: hNPY2R 100% hP)	pEC50 (hGIPR; 100% human plasma, read-out: hGIPR 100% hP)	Compound
400 µg/mL	9.40	8.74	7.4 h	9.52	–	–	–	CC[C@H](C)[C@H](NC(=O)[C@H](CC(C)C)NC(=O)[C@H](Cc1c[nH]cn1)NC(=O)[C@H](CCCNC(=N)N)NC(=O)[C@@H](NC(=O)[C@H](Cc1ccccc1)NC(=O)[C@H](C)NC(=O)C(C)(C)NC(=O)[C@H](CCC(N)=O)NC(=O)[C@H](C)NC(=O)[C@H](CCC(N)=O)NC(=O)[C@H](CCCCN)NC(=O)[C@H](CCC(=O)O)NC(=O)[C@H](CC(C)C)NC(=O)C(C)(C)NC(=O)[C@@H](NC(=O)[C@H](CO)NC(=O)[C@H](Cc1ccc(O)cc1)NC(=O)[C@H](CC(=O)O)NC(=O)[C@H](CO)NC(=O)[C@@H](NC(=O)[C@H](Cc1ccccc1)NC(=O)[C@@H](NC(=O)CNC(=O)[C@H](CCC(=O)O)NC(=O)C(C)(C)NC(=O)[C@@H](N)Cc1ccc(O)cc1)[C@@H](C)O)[C@@H](C)O)[C@@H](C)CC)C(C)C)C(=O)N[C@@H](CC(N)=O)C(=O)N[C@@H](CCCCNC(=O)CC[C@H](NC(=O)CC[C@H](NC(=O)CC[C@H](NC(=O)CC[C@H](NC(=O)CCCCCCCCCCCCCCCCC(=O)O)C(=O)O)C(=O)O)C(=O)O)C(=O)O)C(=O)NC(C)(C)C(=O)N[C@H](C(=O)N[C@@H](CCCNC(=N)N)C(=O)N[C@@H](CCC(N)=O)C(=O)N[C@@H](CCCNC(=N)N)C(=O)N[C@@H](Cc1ccc(O)cc1)C(N)=O)[C@@H](C)O [Compound 77, Y-Aib-E-G-T-F-T-S-D-Y-S-I-Aib-L-E-K-Q-A-Q-Aib-A-F-V-R-H-L-I-N-K(1,3)-Aib-T-R-Q-R-Y-NH2.C18DA-gGlu-gGlu-gGlu-gGlu(1,2)]
–	9.00	8.40	5.3 h	9.40	7.48	–	–	CC[C@H](C)[C@H](NC(=O)[C@H](CC(C)C)NC(=O)[C@H](Cc1c[nH]cn1)NC(=O)[C@H](CCCNC(=N)N)NC(=O)[C@@H](NC(=O)[C@H](Cc1ccccc1)NC(=O)[C@H](C)NC(=O)C(C)(C)NC(=O)[C@H](CCC(N)=O)NC(=O)[C@H](C)NC(=O)[C@H](CCC(N)=O)NC(=O)[C@H](CCCCN)NC(=O)[C@H](CCC(=O)O)NC(=O)[C@H](CC(C)C)NC(=O)C(C)(C)NC(=O)[C@@H](NC(=O)[C@H](CO)NC(=O)[C@H](Cc1ccc(O)cc1)NC(=O)[C@H](CC(=O)O)NC(=O)[C@H](CO)NC(=O)[C@@H](NC(=O)[C@H](Cc1ccccc1)NC(=O)[C@@H](NC(=O)CNC(=O)[C@H](CCC(=O)O)NC(=O)C(C)(C)NC(=O)[C@@H](N)Cc1ccc(O)cc1)[C@@H](C)O)[C@@H](C)O)[C@@H](C)CC)C(C)C)C(=O)N[C@@H](CC(N)=O)C(=O)N[C@@H](CCCCNC(=O)CC[C@H](NC(=O)CC[C@H](NC(=O)CC[C@H](NC(=O)CC[C@H](NC(=O)CC[C@H](NC(=O)CC[C@H](NC(=O)CCCCCCCCCCCCCCCCC(=O)O)C(=O)O)C(=O)O)C(=O)O)C(=O)O)C(=O)O)C(=O)O)C(=O)NC(C)(C)C(=O)N[C@H](C(=O)N[C@@H](CCCNC(=N)N)C(=O)N[C@@H](CCC(N)=O)C(=O)N[C@@H](CCCNC(=N)N)C(=O)N[C@@H](Cc1ccc(O)cc1)C(N)=O)[C@@H](C)O [Compound 134, Y-Aib-E-G-T-F-T-S-D-Y-S-I-Aib-L-E-K-Q-A-Q-Aib-A-F-V-R-H-L-I-N-K(1,3)-Aib-T-R-Q-R-Y-NH2.C18DA-gGlu-gGlu-gGlu-gGlu-gGlu-gGlu(1,2)]
3800 µg/mL	–	–	7.3 h	9.22	–	7.55	–	CC[C@H](C)[C@H](NC(=O)[C@H](CC(C)C)NC(=O)[C@H](Cc1c[nH]cn1)NC(=O)[C@H](CCCNC(=N)N)NC(=O)[C@@H](NC(=O)[C@H](Cc1ccccc1)NC(=O)[C@H](C)NC(=O)C(C)(C)NC(=O)[C@H](CCC(=O)O)NC(=O)[C@H](C)NC(=O)[C@H](CCC(N)=O)NC(=O)[C@H](CCCCN)NC(=O)[C@H](CCC(=O)O)NC(=O)[C@H](CC(C)C)NC(=O)C(C)(C)NC(=O)[C@@H](NC(=O)[C@H](CO)NC(=O)[C@H](Cc1ccc(O)cc1)NC(=O)[C@H](CC(=O)O)NC(=O)[C@H](CO)NC(=O)[C@@H](NC(=O)[C@H](Cc1ccccc1)NC(=O)[C@@H](NC(=O)CNC(=O)[C@H](CCC(=O)O)NC(=O)C(C)(C)NC(=O)[C@@H](N)Cc1ccc(O)cc1)[C@@H](C)O)[C@@H](C)O)[C@@H](C)CC)C(C)C)C(=O)N[C@@H](CC(N)=O)C(=O)N[C@@H](CCCCNC(=O)[C@@H](N)CCCCNC(=O)CC[C@H](NC(=O)CC[C@H](NC(=O)CC[C@H](NC(=O)CC[C@H](NC(=O)CC[C@H](NC(=O)CC[C@H](NC(=O)CCCCCCCCCCCCCCCCC(=O)O)C(=O)O)C(=O)O)C(=O)O)C(=O)O)C(=O)O)C(=O)O)C(=O)NC(C)(C)C(=O)N[C@H](C(=O)N[C@@H](CCCNC(=N)N)C(=O)N[C@@H](CCC(N)=O)C(=O)N[C@@H](CCCNC(=N)N)C(=O)N[C@@H](Cc1ccc(O)cc1)C(N)=O)[C@@H](C)O [Compound 10, Y-Aib-E-G-T-F-T-S-D-Y-S-I-Aib-L-E-K-Q-A-E-Aib-A-F-V-R-H-L-I-N-K(1,3)-Aib-T-R-Q-R-Y-NH2.C18DA-gGlu-gGlu-gGlu-gGlu-gGlu-gGlu-eLys(1,2)]
4200 µg/mL	9.40	–	10 h	9.70	–	–	8.55	CC[C@H](C)[C@H](NC(=O)[C@H](CC(C)C)NC(=O)[C@H](Cc1c[nH]cn1)NC(=O)[C@H](CCCNC(=N)N)NC(=O)[C@@H](NC(=O)[C@H](Cc1ccccc1)NC(=O)[C@H](C)NC(=O)C(C)(C)NC(=O)[C@H](CCC(N)=O)NC(=O)[C@H](C)NC(=O)[C@H](CCC(N)=O)NC(=O)[C@H](CCCCN)NC(=O)[C@H](CCC(=O)O)NC(=O)[C@H](CC(C)C)NC(=O)C(C)(C)NC(=O)[C@@H](NC(=O)[C@H](CO)NC(=O)[C@H](Cc1ccc(O)cc1)NC(=O)[C@H](CC(=O)O)NC(=O)[C@H](CO)NC(=O)[C@@H](NC(=O)[C@H](Cc1ccccc1)NC(=O)[C@@H](NC(=O)CNC(=O)[C@H](CCC(=O)O)NC(=O)C(C)(C)NC(=O)[C@@H](N)Cc1ccc(O)cc1)[C@@H](C)O)[C@@H](C)O)[C@@H](C)CC)C(C)C)C(=O)N[C@@H](CC(N)=O)C(=O)N[C@@H](CCCCNC(=O)[C@@H](N)CCCCNC(=O)CC[C@H](NC(=O)CC[C@H](NC(=O)CC[C@H](NC(=O)CC[C@H](NC(=O)CC[C@H](NC(=O)CC[C@H](NC(=O)CC[C@H](NC(=O)CCCCCCCCCCCCCCCCC(=O)O)C(=O)O)C(=O)O)C(=O)O)C(=O)O)C(=O)O)C(=O)O)C(=O)O)C(=O)NC(C)(C)C(=O)N[C@H](C(=O)N[C@@H](CCCNC(=N)N)C(=O)N[C@@H](CCC(N)=O)C(=O)N[C@@H](CCCNC(=N)N)C(=O)N[C@@H](Cc1ccc(O)cc1)C(N)=O)[C@@H](C)O [Compound 121, Y-Aib-E-G-T-F-T-S-D-Y-S-I-Aib-L-E-K-Q-A-Q-Aib-A-F-V-R-H-L-I-N-K(1,3)-Aib-T-R-Q-R-Y-NH2.C18DA-gGlu-gGlu-gGlu-gGlu-gGlu-gGlu-gGlu-eLys(1,2)]
